In patent US8875704B2, “Nasal administration” (priority 2007, dated 2014):
Read-outs that look alike come from different tables or passages of the source.

How the values were obtained:
[1] = nasal spray, cited from earlier work
[2] = human, in vivo, inhaled or intranasal
Experimental: In this study, the fraction absorbed nasally was calculated by preventing absorption via the GI tract through the use of charcoal.

[3] = rat, in vivo; cited from earlier work
[4] = in vivo; cited from earlier work
[5] = tested on: allergic rhinitis; conditions: intranasal, humans; cited from earlier work
[6] = cited from earlier work
[7] = tested on: GTN-induced migraine; conditions: cited from earlier work
[8] = intranasal, formulations containing cyclodextrins, rabbits; cited from earlier work

For CN(C)CCc1c[nH]c2ccc(C[C@H]3COC(=O)N3)cc12 [zolmitriptan], the “fraction of nasal absorption” value ([1]; GI absorption prevented with charcoal) is given as “about 30%”, the “total BA” value [1] is given as “about 40%” and the “ratio of nasal absorption fraction to total bioavailability (BA)” value [2] is given as “about 0.75”.

In the case of salmon calcitonin, the “Tmax, powder versus liquid formulations” value [3] is given as “no apparent difference”.

For calcitonin, the “absorption, liquid versus powder formulations” value [4] is given as “comparable”.

For O=C(O)c1cc(=O)c2c(OCC(O)COc3cccc4oc(C(=O)O)cc(=O)c34)cccc2o1 [sodium cromoglycate], the “effectiveness, powder versus solution formulation” value [5] is given as “somewhat more effective”.

In the case of elcatonin, the “bio-availability in vivo, powder formulation versus liquid” value [6] is given as “greater bio-availability”.

For O=[N+]([O-])OCC(CO[N+](=O)[O-])O[N+](=O)[O-] [GTN, glyceryltrinitrate], the “subjects with a history of migraine in whom migraine is expected to be induced” value ([7]; GTN challenge) is listed as 75%.

For CNS(=O)(=O)Cc1ccc2[nH]cc(CCN(C)C)c2c1 [sumatriptan], the “time to reversal of GTN-induced excess of theta (more than 15%) after treatment” value ([7]; studies by others) is listed as ≤ 30 min.

For CN1C[C@H](C(=O)N[C@]2(C)O[C@@]3(O)[C@@H]4CCCN4C(=O)[C@H](Cc4ccccc4)N3C2=O)C[C@@H]2c3cccc4[nH]cc(c34)C[C@H]21 [dihydroergotamine], the “Tmax, powder versus liquid formulations” value [8] is given as “broadly comparable”.
